{"source": "patent US6479435B1", "about": "“Diaryl ethers and processes for their preparation and herbicidal and desiccant compositions containing them” (ISK Americas Incorporated, priority 1997, dated 2002)", "assay_type_in_all_cases": "in vivo", "key": {"[1]": {"system": "field corn (Zea mays L., var. Dekalb 535, CORN)", "test": "Pre-emerge greenhouse test, crop damage rating", "settings": "14 days after application, rating scale 0-100", "text": "(§1) A standard greenhouse herbicide activity screening system was used to evaluate the herbicidal efficacy and crop safety of these test compounds. Six broadleaf weed species including redroot pigweed (Amaranthus retroflexus, AMARE), velvetleaf (Abutilon theophrasti, ABUTH), sicklepod (Cassia obtusifolia, CASOB), ivyleaf morningglory (Ipomoea hederacea, IPOHE), lambsquarters (Chenopodium album, CHEAL) and common ragweed (Ambrosia artemisiifolia L., AMBEL) were used as test species. Four grass weed species including green foxtail (Setaria viridis, SETVI), barnyardgrass (Echinochloa crusgalli, ECHCG), Johnsongrass (Sorghum halepense, SORHA), and large crabgrass (Digitaria sanguinalis, DIGSA) were also used. In addition, three crop species, field corn (Zea mays L., var. Dekalb 535, CORN), soybean (Glycine max L., var. Pella 86, SOY), and upland rice (Oryza sp., var.Tebonnet, RICE) were included.\n(§2) All plants were grown in 10 cm square plastic pots which were filled with a sandy loam soil mix. For preemerge tests, seeds were planted one day prior to application of the test compounds. Immediately after application, test units of the pre-emerge applications were watered at the soil surface to incorporate the test materials. Subsequently, these test units were bottom-watered.\n(§3) All test compounds were dissolved in acetone and applied to the test units in a volume of 187 l/ha. Test materials were applied at rates ranging from 125 g ai/ha to 1000 g ai/ha using a track sprayer equipped with a TJ8001E even flow flat fan spray nozzle. Plants were arranged on a shelf so that the top of the canopy (post-emerge) or top of the soil surface (pre-emerge) was 40-45 cm below the nozzle. Pressurized air was used to force the test solution through the nozzle as it was mechanically advanced (via electrically driven chain drive) over the top of all test plants/pots. This application simulates a typical commercial field herbicide application.\n(§4) At 14 days after application of the test materials, phytotoxicity ratings were recorded. A rating scale of 0-100 was used as previously described in Research Methods in Weed Science, 2nd edition, B. Truelove, Ed., Southern Weed Science Society, Auburn University, Auburn, Ala., 1977. Briefly, “0” corresponds to no damage and “100” corresponds to complete death of all plants in the test unit. This scale was used both to determine efficacy against weed species and damage to crop species. Herbicide activity data for various compounds of this invention, which are shown by compound number in Tables 1-9, are shown in Tables 13 and 14."}, "[2]": {"system": "upland rice (Oryza sp., var.Tebonnet, RICE)", "test": "Pre-emerge greenhouse test, crop damage rating", "settings": "14 days after application, rating scale 0-100", "text": "as §1, §2, §3, §4"}, "[3]": {"system": "soybean (Glycine max L., var. Pella 86, SOY)", "test": "Pre-emerge greenhouse test, crop damage rating", "parameters": "key to SOY crop damage rating: 0 = no damage, 100 = complete death of all plants", "settings": "14 days after application, rating scale 0-100", "text": "as §1, §2, §3, §4"}, "[4]": {"system": "large crabgrass (Digitaria sanguinalis, DIGSA)", "test": "Post-emerge greenhouse herbicide test, phytotoxicity rating", "settings": "14 days after application, scale 0-100", "text": "as §1, §3\n(§5) In the post-emerge test, a commercial non-ionic surfactant was also included (0.25% v/v) to enhance wetting of the leaf surfaces Qf target plants at rates ranging from 63 g ai/ha to 1000 g ai/ha. For post-emerge tests, seeds were planted 8-21 days prior to the test to allow emergence and good foliage development prior to application of the test substances. At the time of the post-emerge application, plants of all species were usually at the 2-3 leaf stage of development. Post-emerge test units were always bottom-watered.\nas §4"}, "[5]": {"system": "redroot pigweed (Amaranthus retroflexus, AMARE)", "test": "Post-emerge greenhouse herbicide test, phytotoxicity rating", "settings": "14 days after application, scale 0-100", "text": "as §1, §3, §5, §4"}, "[6]": {"system": "sicklepod (Cassia obtusifolia, CASOB)", "test": "Post-emerge greenhouse herbicide test, phytotoxicity rating", "settings": "14 days after application, scale 0-100", "text": "as §1, §3, §5, §4"}, "[7]": {"system": "ivyleaf morningglory (Ipomoea hederacea, IPOHE)", "test": "Post-emerge greenhouse herbicide test, phytotoxicity rating", "settings": "14 days after application, scale 0-100", "text": "as §1, §3, §5, §4"}, "[8]": {"system": "lambsquarters (Chenopodium album, CHEAL)", "test": "Post-emerge greenhouse herbicide test, phytotoxicity rating", "settings": "14 days after application, scale 0-100", "text": "as §1, §3, §5, §4"}, "[9]": {"system": "Johnsongrass (Sorghum halepense, SORHA)", "test": "Post-emerge greenhouse herbicide test, phytotoxicity rating", "settings": "14 days after application, scale 0-100", "text": "as §1, §3, §5, §4"}, "[10]": {"system": "green foxtail (Setaria viridis, SETVI)", "test": "Post-emerge greenhouse herbicide test, phytotoxicity rating", "settings": "14 days after application, scale 0-100", "text": "as §1, §3, §5, §4"}, "[11]": {"system": "barnyardgrass (Echinochloa crusgalli, ECHCG)", "test": "Post-emerge greenhouse herbicide test, phytotoxicity rating", "settings": "14 days after application, scale 0-100", "text": "as §1, §3, §5, §4"}, "[12]": {"system": "velvetleaf (Abutilon theophrasti, ABUTH)", "test": "Post-emerge greenhouse herbicide test, phytotoxicity rating", "settings": "14 days after application, scale 0-100", "text": "as §1, §3, §5, §4"}, "[13]": {"system": "field corn (Zea mays L., var. Dekalb 535, CORN)", "test": "Post-emerge greenhouse test, crop damage rating", "settings": "14 days after application, scale 0-100", "text": "as §1, §3, §5, §4"}, "[14]": {"system": "upland rice (Oryza sp., var.Tebonnet, RICE)", "test": "Post-emerge greenhouse test, crop damage rating", "settings": "14 days after application, scale 0-100", "text": "as §1, §3, §5, §4"}, "[15]": {"system": "soybean (Glycine max L., var. Pella 86, SOY)", "test": "Post-emerge greenhouse test, crop damage rating", "parameters": "key to crop damage rating SOY: 0-100 scale: 0 = no damage, 100 = complete death of all plants", "settings": "14 days after application, scale 0-100", "text": "as §1, §3, §5, §4"}, "[16]": {"system": "large crabgrass (Digitaria sanguinalis, DIGSA)", "test": "Pre-emerge greenhouse herbicide test, phytotoxicity rating", "settings": "14 days after application, rating scale 0-100", "text": "as §1, §2, §3, §4"}, "[17]": {"system": "redroot pigweed (Amaranthus retroflexus, AMARE)", "test": "Pre-emerge greenhouse herbicide test, phytotoxicity rating", "settings": "14 days after application, rating scale 0-100", "text": "as §1, §2, §3, §4"}, "[18]": {"system": "sicklepod (Cassia obtusifolia, CASOB)", "test": "Pre-emerge greenhouse herbicide test, phytotoxicity rating", "settings": "14 days after application, rating scale 0-100", "text": "as §1, §2, §3, §4"}, "[19]": {"system": "ivyleaf morningglory (Ipomoea hederacea, IPOHE)", "test": "Pre-emerge greenhouse herbicide test, phytotoxicity rating", "settings": "14 days after application, rating scale 0-100", "text": "as §1, §2, §3, §4"}, "[20]": {"system": "lambsquarters (Chenopodium album, CHEAL)", "test": "Pre-emerge greenhouse herbicide test, phytotoxicity rating", "settings": "14 days after application, rating scale 0-100", "text": "as §1, §2, §3, §4"}, "[21]": {"system": "Johnsongrass (Sorghum halepense, SORHA)", "test": "Pre-emerge greenhouse herbicide test, phytotoxicity rating", "settings": "14 days after application, rating scale 0-100", "text": "as §1, §2, §3, §4"}, "[22]": {"system": "green foxtail (Setaria viridis, SETVI)", "test": "Pre-emerge greenhouse herbicide test, phytotoxicity rating", "settings": "14 days after application, rating scale 0-100", "text": "as §1, §2, §3, §4"}, "[23]": {"system": "barnyardgrass (Echinochloa crusgalli, ECHCG)", "test": "Pre-emerge greenhouse herbicide test, phytotoxicity rating", "settings": "14 days after application, rating scale 0-100", "text": "as §1, §2, §3, §4"}, "[24]": {"system": "velvetleaf (Abutilon theophrasti, ABUTH)", "test": "Pre-emerge greenhouse herbicide test, phytotoxicity rating", "settings": "14 days after application, rating scale 0-100", "text": "as §1, §2, §3, §4"}}, "data": [{"smiles": "Nn1c(C(F)(F)F)cc(=O)n(-c2cc(Oc3cccc(F)n3)c(Cl)cc2F)c1=O", "note": "[Compound 9-4, 1-Amino-3-[4-chloro-2-fluora-5-(6-fluoro-2-pyridyloxy)phenyl]-6-trifluoromethyl-1,2,3,4-tetrahydropyrimidine-2,4-dione]", "values": [{"measurement": "CORN crop damage rating", "setting": "[1]; Rate 125 g al/ha", "value": 60}, {"measurement": "CORN crop damage rating", "setting": "[1]; Rate 500 g al/ha", "value": 95}, {"measurement": "RICE crop damage rating", "setting": "[2]; Rate 125 g al/ha", "value": 40}, {"measurement": "RICE crop damage rating", "setting": "[2]; Rate 500 g al/ha", "value": 99}, {"measurement": "SOY crop damage rating", "setting": "[3]; Rate 125 g al/ha", "value": 80}, {"measurement": "SOY crop damage rating", "setting": "[3]; Rate 500 g al/ha", "value": 95}, {"measurement": "phytotoxicity rating DIGSA", "setting": "[4]; rate 63 g ai/ha", "value": 10}, {"measurement": "phytotoxicity rating DIGSA", "setting": "[4]; rate 500 g ai/ha", "value": 95}, {"measurement": "phytotoxicity rating AMARE", "setting": "[5]; rate 63 g ai/ha", "value": 95}, {"measurement": "phytotoxicity rating AMARE", "setting": "[5]; rate 500 g ai/ha", "value": 100}, {"measurement": "phytotoxicity rating CASOB", "setting": "[6]; rate 63 g ai/ha", "value": 90}, {"measurement": "phytotoxicity rating CASOB", "setting": "[6]; rate 500 g ai/ha", "value": 100}, {"measurement": "phytotoxicity rating IPOHE", "setting": "[7]; rate 63 g ai/ha", "value": 100}, {"measurement": "phytotoxicity rating IPOHE", "setting": "[7]; rate 500 g ai/ha", "value": 100}, {"measurement": "phytotoxicity rating CHEAL", "setting": "[8]; rate 63 g ai/ha", "value": 80}, {"measurement": "phytotoxicity rating CHEAL", "setting": "[8]; rate 500 g ai/ha", "value": 100}, {"measurement": "phytotoxicity rating SORHA", "setting": "[9]; rate 63 g ai/ha", "value": 70}, {"measurement": "phytotoxicity rating SORHA", "setting": "[9]; rate 500 g ai/ha", "value": 98}, {"measurement": "phytotoxicity rating SETVI", "setting": "[10]; rate 63 g ai/ha", "value": 30}, {"measurement": "phytotoxicity rating SETVI", "setting": "[10]; rate 500 g ai/ha", "value": 95}, {"measurement": "phytotoxicity rating ECHCG", "setting": "[11]; rate 63 g ai/ha", "value": 70}, {"measurement": "phytotoxicity rating ECHCG", "setting": "[11]; rate 500 g ai/ha", "value": 100}, {"measurement": "phytotoxicity rating ABUTH", "setting": "[12]; rate 63 g ai/ha", "value": 100}, {"measurement": "phytotoxicity rating ABUTH", "setting": "[12]; rate 500 g ai/ha", "value": 100}, {"measurement": "crop damage rating CORN", "setting": "[13]; rate 63 g ai/ha", "value": 40}, {"measurement": "crop damage rating CORN", "setting": "[13]; rate 500 g ai/ha", "value": 80}, {"measurement": "crop damage rating RICE", "setting": "[14]; rate 63 g ai/ha", "value": 50}, {"measurement": "crop damage rating RICE", "setting": "[14]; rate 500 g ai/ha", "value": 70}, {"measurement": "crop damage rating SOY", "setting": "[15]; rate 63 g ai/ha", "value": 95}, {"measurement": "crop damage rating SOY", "setting": "[15]; rate 500 g ai/ha", "value": 100}, {"measurement": "DIGSA phytotoxicity rating", "setting": "[16]; Rate 125 g al/ha", "value": 100}, {"measurement": "DIGSA phytotoxicity rating", "setting": "[16]; Rate 500 g al/ha", "value": 100}, {"measurement": "AMARE phytotoxicity rating", "setting": "[17]; Rate 125 g al/ha", "value": 100}, {"measurement": "AMARE phytotoxicity rating", "setting": "[17]; Rate 500 g al/ha", "value": 100}, {"measurement": "CASOB phytotoxicity rating", "setting": "[18]; Rate 125 g al/ha", "value": 60}, {"measurement": "CASOB phytotoxicity rating", "setting": "[18]; Rate 500 g al/ha", "value": 100}, {"measurement": "IPOHE phytotoxicity rating", "setting": "[19]; Rate 125 g al/ha", "value": 100}, {"measurement": "IPOHE phytotoxicity rating", "setting": "[19]; Rate 500 g al/ha", "value": 100}, {"measurement": "CHEAL phytotoxicity rating", "setting": "[20]; Rate 125 g al/ha", "value": 100}, {"measurement": "CHEAL phytotoxicity rating", "setting": "[20]; Rate 500 g al/ha", "value": 100}, {"measurement": "SORHA phytotoxicity rating", "setting": "[21]; Rate 125 g al/ha", "value": 99}, {"measurement": "SORHA phytotoxicity rating", "setting": "[21]; Rate 500 g al/ha", "value": 100}, {"measurement": "SETVI phytotoxicity rating", "setting": "[22]; Rate 125 g al/ha", "value": 100}, {"measurement": "SETVI phytotoxicity rating", "setting": "[22]; Rate 500 g al/ha", "value": 100}, {"measurement": "ECHCG phytotoxicity rating", "setting": "[23]; Rate 125 g al/ha", "value": 100}, {"measurement": "ECHCG phytotoxicity rating", "setting": "[23]; Rate 500 g al/ha", "value": 100}, {"measurement": "ABUTH phytotoxicity rating", "setting": "[24]; Rate 125 g al/ha", "value": 100}, {"measurement": "ABUTH phytotoxicity rating", "setting": "[24]; Rate 500 g al/ha", "value": 100}]}]}
